Results published in the NIST ThermoML archive (doi:10.1021/je8003832).
± gives the expanded uncertainty stated by the source.

How the values were obtained:
[1] = 101 kPa, Liquid
[2] = xn = mol fraction of the nth substance listed; details: 101 kPa, Liquid, x1 = 1

CCCCn1cc[n+](C)c1.O=S(=O)([O-])C(F)(F)F [1-butyl-3-methylimidazolium trifluoromethanesulfonate]
mass density ([1]; 303.15 K): 1298.4 ± 4 kg/m3
viscosity ([1]; 303.15 K): 63.19 ± 4.1 mPa·s
mass density ([1]; 308.15 K): 1294.9 ± 4.1 kg/m3
viscosity ([1]; 308.15 K): 51.73 ± 3.6 mPa·s
mass density ([1]; 313.15 K): 1291.4 ± 4.2 kg/m3
viscosity ([1]; 313.15 K): 42.46 ± 2.8 mPa·s
mass density ([1]; 318.15 K): 1287.8 ± 4.3 kg/m3
viscosity ([1]; 318.15 K): 35.17 ± 2.3 mPa·s
mass density ([1]; 323.15 K): 1284.4 ± 4.5 kg/m3
viscosity ([1]; 323.15 K): 29.55 ± 2 mPa·s
mass density ([1]; 333.15 K): 1277.4 ± 4.7 kg/m3
viscosity ([1]; 333.15 K): 21.61 ± 1.5 mPa·s
mass density ([1]; 343.15 K): 1270.5 ± 4.9 kg/m3
viscosity ([1]; 343.15 K): 16.38 ± 1.1 mPa·s

O [water] + CCCCn1cc[n+](C)c1.O=S(=O)([O-])C(F)(F)F
viscosity ([2]; 303.15 K): 0.7977 ± 0.081 mPa·s
viscosity ([2]; 308.15 K): 0.719 ± 0.074 mPa·s
viscosity ([2]; 313.15 K): 0.6532 ± 0.069 mPa·s
viscosity ([2]; 318.15 K): 0.6001 ± 0.064 mPa·s
viscosity ([2]; 323.15 K): 0.547 ± 0.06 mPa·s
mass density ([2]; 333.15 K): 983.2 ± 3.3 kg/m3
viscosity ([2]; 333.15 K): 0.4665 ± 0.053 mPa·s
mass density ([2]; 343.15 K): 977.8 ± 3.5 kg/m3
viscosity ([2]; 343.15 K): 0.404 ± 0.048 mPa·s
